Test results published in patent US20080221060A1, “Therapeutic Compounds” (priority 2004, published 2008).
Values joined by “and” are separate entries in the source; they are usually repeats but may differ in a detail not shown here. Identical values can stand only once. Like-named read-outs stand apart in the source and are kept apart here.

Assays:
[1] = blood pressure and heart rate in rats (radiotelemetry); assay type: in vivo, rat
Description: An implantable radiotelemetry device was placed in the abdominal cavity of 6 rats per group. The pressure catheter of the device was inserted in the abdominal aorta and two electrodes tunnelised under the skin in a lead II position (left side of abdominal cavity/right shoulder). Individual rats were placed in their own cage on a radioreceptor (DSI) for data acquisition. A: blood pressure; B: heart rate.

[2] = test system: carrageenan (CGN) induced thermal hyperalgesia; test: carrageenan induced thermal hyperalgesia (CITH); assay type: in vivo; details: 0.624 mg/kg p.o.; indomethacin 3 mg/kg po as comparator
Description: A. […] Carrageenan (2%, 10 microlitres) was administered into the right hind paw. A heat source was placed close to the treated and untreated hind paws, and the difference in the paw withdrawal latencies is shown. Spongosine was administered at the same time as carrageenan.

[3] = test system: chronic constriction injury model of neuropathic pain; test: thermal hyperalgesia, chronic constriction injury of the rat sciatic nerve; assay type: in vivo; details: rat CCI, 0.624 mg/kg p.o.
Description: After approximately two weeks the rats developed thermal hyperalgesia in the operated leg as judged by the difference in paw withdrawal latencies of the right and left paws.

adenosine receptors = adenosine receptors (Rattus norvegicus, UniProt P30543); test: EC50 at adenosine receptors measured at pH 7.4; assay type: biochemical; details: measured at pH7.4
Description: (§1) For the avoidance of doubt, the EC50 value of a compound is defined herein as the concentration of the compound that provokes a receptor response halfway between the baseline receptor response and the maximum receptor response (as determined, for example, using a dose-response curve).
(§2) The EC50 value should be determined under standard conditions (balanced salt solutions buffered to pH 7.4). For EC50 determinations using isolated membranes, cells and tissues this would be in buffered salt solution at pH 7.4 (e.g. cell culture medium), for example as in Daly et al, Pharmacol. (1993) 46, 91-100), or preferably as in Tilburg et al (J. Med. Chem. (2002) 45, 91-100). The EC50 could also be determined in vivo by measuring adenosine receptor mediated responses in a normal healthy animal, or even in a tissue perfused under normal conditions (i.e. oxygenated blood, or oxygenated isotonic media, also buffered at pH 7.4) in a normal healthy animal.

[4] = test system: chronic constriction injury model of neuropathic pain; test: static allodynia, chronic constriction injury of the rat sciatic nerve; assay type: in vivo; details: rat CCI
Description: The total dose administered is shown on the horizontal axis, and the paw withdrawal threshold (PWT) on the vertical axis.

adenosine A1 receptor = target: T1, adenosine A1 receptor (Cavia porcellus, UniProt P47745); details: guinea pig; read-out: EC50, adenosine A1 receptor, isolated heart preparation; cited from earlier work
T1 construct: host or cells: guinea pig isolated heart
T1 sequence (P47745 1-326): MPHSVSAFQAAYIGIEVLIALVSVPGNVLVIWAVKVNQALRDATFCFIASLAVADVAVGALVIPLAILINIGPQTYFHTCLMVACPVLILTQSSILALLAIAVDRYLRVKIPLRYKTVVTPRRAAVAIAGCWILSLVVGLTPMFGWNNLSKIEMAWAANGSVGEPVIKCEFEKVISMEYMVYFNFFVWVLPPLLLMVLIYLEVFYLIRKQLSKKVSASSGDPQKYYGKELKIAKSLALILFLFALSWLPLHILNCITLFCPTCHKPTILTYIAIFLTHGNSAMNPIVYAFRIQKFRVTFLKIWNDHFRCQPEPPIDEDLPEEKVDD

[5] = target: adenosine receptors (rat striatal membranes, [3H]-CGS21680) (Rattus norvegicus, UniProt P30543); test: Ki from displacement of [3H]-CGS21680 in rat striatal membranes at pH 5.5 and pH 7.4; assay type: binding; design: from tissue; host or cells: rat striatum (membranes); details: for Ki: 2 nM [3H]-CGS21680, 90 minutes at 22° C.
[6] = test system: carrageenan (CGN) induced inflammation; test: carrageenan induced paw inflammation (plethysmometry); assay type: in vivo; details: rat, 62.4 and 624 μg/kg i.p.; indomethacin 3 mg/kg po as comparator
Description: Carrageenan (2%, 10 microlitres) was administered into the right hind paw of a rat, and the paw volume assessed by plethysomometry. Spongosine was administered at the same time as carrageenan.

adenosine A2A receptor [7] = target: T2, adenosine A2A receptor (Cavia porcellus, UniProt P46616); details: guinea pig; read-out: EC50, adenosine A2A receptor, isolated heart preparation; cited from earlier work
T2 construct: host or cells: guinea pig isolated heart

rat A2A receptor = rat A2A receptor (Rattus norvegicus, UniProt P30543); details: read-out: EC50 for stimulation of the rat A2A receptor; cited from earlier work
[8] = target: T3, rat adenosine A1 receptor (Rattus norvegicus, UniProt P25099); details: cited from earlier work
T3 sequence (P25099 1-326): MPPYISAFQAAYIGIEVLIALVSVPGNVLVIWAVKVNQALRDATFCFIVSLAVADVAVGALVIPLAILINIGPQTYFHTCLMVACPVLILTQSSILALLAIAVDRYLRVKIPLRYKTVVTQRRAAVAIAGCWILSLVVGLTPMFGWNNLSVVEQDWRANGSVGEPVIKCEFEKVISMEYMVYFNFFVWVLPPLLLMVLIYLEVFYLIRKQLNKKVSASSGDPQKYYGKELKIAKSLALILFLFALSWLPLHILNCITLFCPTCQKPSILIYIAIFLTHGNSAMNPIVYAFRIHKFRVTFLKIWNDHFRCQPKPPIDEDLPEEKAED

[9] = test system: carageenan-induced inflammation; details: rats, 20 mg/kg po; cited from earlier work
[10] = tachycardia by 12 lead ECGs in human volunteers; assay type: in vivo
Description: Tachycardia was determined using 12 lead ECGs.

[11] = test system: human macrophage cell line U937; test: LPS induced TNF alpha release in U937 cells; assay type: cell-based; details: 100 ng/ml LPS, 3 hours
Description: Cells of human macrophage cell line U937 were grown in suspension to 500,000 cells/ml, plated out into 48 well plates, treated with 20 ng/ml PMA and incubated for 8 hours. Cells adhered to well bottoms and were washed and allowed to recover for 36 hours before use. […] After 3 hours the cell supernatants were assayed for TNF alpha using fluorescence labeled ELISA kits.

[12] = plasma concentrations after single oral dosing in human volunteers; assay type: in vivo
[13] = 20 mg/kg po; cited from earlier work
adenosine A2A receptor [14] = target: adenosine A2A receptor (UniProt P30543); test: EC50 at the adenosine A2A receptor; assay type: biochemical
Description: as §1, §2

Chain of adenosine receptors (rat striatal membranes, [3H]-CGS21680) (P30543 whole entry): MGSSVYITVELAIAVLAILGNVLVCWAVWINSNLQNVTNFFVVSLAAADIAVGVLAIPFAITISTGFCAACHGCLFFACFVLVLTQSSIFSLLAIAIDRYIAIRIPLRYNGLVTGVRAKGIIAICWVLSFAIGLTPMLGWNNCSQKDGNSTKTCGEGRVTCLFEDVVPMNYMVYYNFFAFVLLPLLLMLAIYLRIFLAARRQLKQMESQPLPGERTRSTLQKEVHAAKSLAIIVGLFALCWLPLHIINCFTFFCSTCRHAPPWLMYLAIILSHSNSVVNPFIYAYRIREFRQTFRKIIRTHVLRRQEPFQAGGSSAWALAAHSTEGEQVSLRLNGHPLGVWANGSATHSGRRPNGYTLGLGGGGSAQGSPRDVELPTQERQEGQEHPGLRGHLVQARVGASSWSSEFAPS
Chain of adenosine receptors (P30543 whole entry): as above
T2 sequence (P46616 whole entry): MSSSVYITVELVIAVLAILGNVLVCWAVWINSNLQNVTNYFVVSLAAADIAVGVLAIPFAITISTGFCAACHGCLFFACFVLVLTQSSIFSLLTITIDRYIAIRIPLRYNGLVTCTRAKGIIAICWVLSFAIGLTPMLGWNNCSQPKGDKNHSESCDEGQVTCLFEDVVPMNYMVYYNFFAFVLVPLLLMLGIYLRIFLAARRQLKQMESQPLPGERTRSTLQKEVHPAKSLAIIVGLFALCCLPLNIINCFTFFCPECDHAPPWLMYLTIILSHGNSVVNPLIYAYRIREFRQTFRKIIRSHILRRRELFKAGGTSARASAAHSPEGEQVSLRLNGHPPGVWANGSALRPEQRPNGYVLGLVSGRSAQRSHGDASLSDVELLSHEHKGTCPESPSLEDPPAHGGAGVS
Chain of rat A2A receptor (P30543 whole entry): as the sequence (P30543 whole entry) above

COc1nc(N)c2ncn([C@@H]3O[C@H](CO)[C@@H](O)[C@H]3O)c2n1 [Compound 1, 2-methoxyadenosine]
effect on blood pressure ([1]; 62.4 and 624 μg/kg i.p.): do not affect blood pressure
effect on blood pressure ([1]; normal rats, 0.624 mg/kg p.o.): no significant effect
effect on heart rate ([1]; normal rats, 0.624 mg/kg p.o.): no significant effect
inhibition of carrageenan induced thermal hyperalgesia [2]: inhibits carrageenan (CGN) induced thermal hyperalgesia (CITH) with comparable efficacy to indomethacin
inhibition of thermal hyperalgesia (paw withdrawal latencies) [3]: inhibits thermal hyperalgesia
efficacy compared with carbamazepine ([3]; CBZ 100 mg/kg s.c.): as, or more, effective than carbamazepine
EC50 (adenosine receptors): 3030 nM and 3000 nM
inhibition of static allodynia (paw withdrawal threshold) ([4]; […] p.o., presence and absence of naloxone (1 mg/kg s.c.)): inhibits static allodynia
inhibition of static allodynia (paw withdrawal threshold) ([4]; p.o., dose response): inhibit static allodynia
EC50 (adenosine A1 receptor): 10000 nM
Ki ([5]; pH 5.5, read-out: (Ki) nM (pH 5.5)): 1.5 nM
Ki ([5]; pH 7.4, read-out: (Ki) nM (pH 7.4)): 1300 nM
affinity for adenosine receptors at pH below pH 7.4 ([5]; pH below pH 7.4 compared with pH 7.4): increased affinity
inhibition of carrageenan induced inflammation (paw volume) [6]: inhibits carrageenan (CGN) induced inflammation with comparable efficacy to indomethacin
EC50 (adenosine A2A receptor [7]): 700 nM
EC50 (rat A2A receptor): 3000 nM
Kd [8]: 340 nM
inhibition of carageenan-induced inflammation [9]: 25%
Tachycardia side effect ([10]; single oral dose 0.2 mg): No
Tachycardia side effect ([10]; single oral dose 0.8 mg): No
Tachycardia side effect ([10]; single oral dose 3.5 mg): No
Tachycardia side effect ([10]; single oral dose 10.5 mg): No
Tachycardia side effect ([10]; single oral dose 21 mg): No
Tachycardia side effect ([10]; single oral dose 28 mg): Yes
inhibition of LPS induced TNF alpha release [11]: inhibits LPS induced TNF release
Cmax ([12]; single oral dose 0.2 mg): 10 ± 5 nM
Cmax ([12]; single oral dose 0.8 mg): 40 ± 20 nM
Cmax ([12]; single oral dose 3.5 mg): 130 ± 40 nM
Cmax ([12]; single oral dose 10.5 mg): 300 ± 40 nM
Cmax ([12]; single oral dose 21 mg): 500 ± 100 nM
Cmax ([12]; single oral dose 28 mg): 600 ± 100 nM
reduction in heart rate [13]: 25%
reduction in mean blood pressure [13]: 41%
EC50 (adenosine A2A receptor [14]): ~1000 nM
